In assay [1] the test system is ACAT (liver microsome fractions of male rabbits). The assay can be described thus: ACAT inhibitory activity: formation of labelled cholesteryl esters from [1-14C]oleoyl-CoA and endogenous cholesterol. The assay is classed as biochemical, rabbit. The conditions noted are these: compound added at 10^-7 M. Here is the method: The enzyme preparation, ACAT was prepared from liver microsme fractions of male rabbits according to the method of E. E. Largis et al. (Journal of Lipid Research, Vol. 30, pages 681-690, 1989). The activity was calculated by assaying the amount of the labelled cholesteryl esters formed from [1-^14 C]oleoyl-CoA and endogenous cholesterol according to the method of Kazuichi NATORI et al. (Japan J. Pharmacol., Vol. 42, pages 517-523, 1986).
The result is shown in Table 1, in which percent inhibition of the formation of the labelled cholesteryl esters with a compound added at 10^-7 M is indicated as index for the ACAT inhibitory activity.

Assay [2] in a line: Cholesterol-lowering activity in hypercholesteremic rats. The assay is classed as in vivo, Sprague-Dawley male rats. The settings on record: 30 mg/kg oral, in 0.5% methylcellulose; plasma cholesterol prior to and 5 hrs after administration. The method, then:
Sprague-Dawley male rats were given a powdery feed containing 1% cholesterol and 0.5% cholic acid in an amount of 15 g per day per animal for 3 days to produce hypercholesteremic rats. Four days later, a compound suspended in 0.5% methylcellulose was administered orally at a dose of 30 mg/kg. Blood was drawn prior to and 5 hrs after the administration of the compound, for which the plasma cholesterol level was measured using a commercially available assay kit (Cholesterol E Test Wako, Wako Junyaku K.K.).

Another assay has as its system Human LDL. The assay can be described thus: Antioxidative activity: inhibition of MDA formation from LDL incubated with cupric sulfate. The assay is classed as biochemical. The conditions noted are these: compound 10^-5 M; cupric sulfate 5×10^-6 M; 5 hrs; compared with control. The method, then: Human LDL was incubated in the presence of cupric sulfate (5×10^-6 M) and in the presence or absence of a compound (10^-5 M) for 5 hrs. After the incubation, the peroxidation of low-density lipoproteins (LDL) is evaluated by the formation of malondialdehyde (MDA), which is a sort of lipid peroxides according to the method of Simon J. T. Mao et al. (J. Med. Chem., Vol. 34, pages 298-302, 1991). Activity of the compound is shown by percent inhibition of the MDA formation as compared with control.

The structures appear in SMILES notation.

`CC(C)(C)c1cc(CCc2ccccc2NC(=O)NC2CCN(Cc3ccccc3)CC2)cc(C(C)(C)C)c1O` [Example 35, N-[2-(3,5-di-tert-butyl-4-hydroxyphenethyl)phenyl]-N'-(1-benzyl-4-piperidyl)urea]: the “ACAT Inhibition” value in assay [1] is on record as 82%. For the same molecule, the “Percent Reduction of Cholesterol” value in assay [2] worked out at 48.4%. The “Antioxidant Activity (percent inhibition of the MDA formation)” value with Human LDL came to 94%.
Turning to `CCCCCCCN(C)C(=O)Nc1ccccc1CCc1cc(C(C)(C)C)c(O)c(C(C)(C)C)c1` [Example 41, N-[2-(3,5-di-tert-butyl-4-hydroxyphenethyl)phenyl]-N'-heptyl-N'-methylurea], the “ACAT Inhibition” value in assay [1] stood at 97%. The “Antioxidant Activity (percent inhibition of the MDA formation)” value with Human LDL worked out at 99%.
On to `CC(C)(C)c1cc(CCc2ccccc2NC(=O)N(Cc2ccccc2)Cc2ccccc2)cc(C(C)(C)C)c1O` [Example 42, N-[2-(3,5-di-tert-butyl-4-hydroxyphenethyl)phenyl]-N',N'-dibenzylurea], for which, in assay [1], the “ACAT Inhibition” value came out at 95%. In addition, the “Antioxidant Activity (percent inhibition of the MDA formation)” value with Human LDL was 97%.
The corresponding values for `CN(C(=O)Nc1ccccc1CCc1cc(C(C)(C)C)c(O)c(C(C)(C)C)c1)C1CCCCC1` [Example 43, N-[2-(3,5-di-tert-butyl-4-hydroxyphenethyl)phenyl]-N'-cyclohexyl-N'-methylurea] are 99% and 99%.
As to `CN(Cc1c2ccccc2cc2ccccc12)C(=O)Nc1ccccc1CCc1cc(C(C)(C)C)c(O)c(C(C)(C)C)c1` [Example 44, N-[2-(3,5-di-tert-butyl-4-hydroxyphenethyl)phenyl]-N'-(9-anthryl)methyl-N'-methylurea], the “ACAT Inhibition” value in assay [1] is 90%. Besides, the “Antioxidant Activity (percent inhibition of the MDA formation)” value in the assay on Human LDL is 94%.
As for `CC(C)(C)c1cc(CCc2ccccc2NC(=O)NC(C2CCCCC2)C2CCCCC2)cc(C(C)(C)C)c1O` [Example 50, N-[2-(3,5-di-tert-butyl-4-hydroxyphenethyl)phenyl]-N'-(dicyclohexylmethyl)urea], in assay [1], the “ACAT Inhibition” value came to 88%. Also, in the assay on Human LDL, the “Antioxidant Activity (percent inhibition of the MDA formation)” value worked out at 90%.
For `CC(C)(C)c1cc(CCc2ccccc2NC(=O)NC2CCC(C(C)(C)C)CC2)cc(C(C)(C)C)c1O` (stereo not shown) [Example 52, N-[2-(3,5-di-tert-butyl-4-hydroxyphenethyl)phenyl]-N'-(4-tert-butylcyclohexyl)urea] the same measures were 97% and 94%.
As to `CC(C)(C)c1cc(CCc2ccccc2NC(=O)NC2CCC(OCc3ccccc3)CC2)cc(C(C)(C)C)c1O` (stereo not shown) [Example 57], in assay [1], the “ACAT Inhibition” value was determined as 89%. Moreover, the “Antioxidant Activity (percent inhibition of the MDA formation)” value in the assay on Human LDL is 95%.
Consider `CCOC(=O)[C@@H](NC(=O)Nc1ccccc1CCc1cc(C(C)(C)C)c(O)c(C(C)(C)C)c1)c1ccccc1` [Example 69, (S)-N-[2-(3,5-di-tert-butyl-4-hydroxyphenethyl)phenyl]-N'-(α-ethoxycarbonyl)benzylurea], for which the “ACAT Inhibition” value in assay [1] was 96%. Further, in the assay on Human LDL, the “Antioxidant Activity (percent inhibition of the MDA formation)” value is recorded as 95%.
For the molecule `CC(C)(C)c1cc(CCc2ccccc2NC(=O)NC(C)(C)c2ccc(Cl)c(Cl)c2)cc(C(C)(C)C)c1O` [Example 74, N-[2-(3,5-di-tert-butyl-4-hydroxyphenethyl)phenyl]-N'-[2-(3,4-dichlorophenyl)-2-propyl]urea], the “ACAT Inhibition” value in assay [1] is reported as 96%. In the assay on Human LDL, the “Antioxidant Activity (percent inhibition of the MDA formation)” value is given as 95%.
For the molecule `CN(C)c1ccc(CCNC(=O)Nc2ccccc2CCc2cc(C(C)(C)C)c(O)c(C(C)(C)C)c2)cc1` [Example 75, N-[2-(3,5-di-tert-butyl-4-hydroxyphenethyl)phenyl]-N'-(4-dimethylaminophenethyl)urea], in assay [1], the “ACAT Inhibition” value was 88%. In addition, the “Antioxidant Activity (percent inhibition of the MDA formation)” value in the assay on Human LDL was 95%.
On to `CC(C)(C)c1cc(CCc2ccccc2NC(=O)NCC2(c3ccc4c(c3)OCO4)CCCC2)cc(C(C)(C)C)c1O` [Example 76, N-[2-(3,5-di-tert-butyl-4-hydroxyphenethyl)phenyl]-N'-[[1-(3,4-methylenedioxyphenyl)cyclopentyl]methyl]urea], for which the “ACAT Inhibition” value in assay [1] came to 98%. Also, the “Antioxidant Activity (percent inhibition of the MDA formation)” value in the assay with Human LDL is on record as 96%.
Turning to `CC(C)(C)c1cc(CCc2ccccc2NC(=O)NCC(C)(C)c2ccc(Cl)c(Cl)c2)cc(C(C)(C)C)c1O` [Example 77, N-[2-(3,5-di-tert-butyl-4-hydroxyphenethyl)phenyl]-N'-[2-(3,4-dichlorophenyl)-2-methylpropyl]urea], in assay [1], the “ACAT Inhibition” value is listed as 96%. In the assay with Human LDL, the “Antioxidant Activity (percent inhibition of the MDA formation)” value is reported as 95%.
On to `CC(C)(C)c1cc(CCc2ccccc2NC(=O)NC2CCN(Cc3ccc(F)cc3F)CC2)cc(C(C)(C)C)c1O` [Example 80, N-[2-(3,5-di-tert-butyl-4-hydroxyphenethyl)phenyl]-N'-[1-(2,4-difluorobenzyl)-4-pyperidyl]urea], for which the “ACAT Inhibition” value in assay [1] is on record as 92%. The “Antioxidant Activity (percent inhibition of the MDA formation)” value in the assay on Human LDL came to 96%.
Consider `CC(C)(C)c1cc(CCc2ccccc2NC(=O)NC2CCN(Cc3ccc(F)cc3)CC2)cc(C(C)(C)C)c1O` [Example 83, N-[2-(3,5-di-tert-butyl-4-hydroxyphenethyl)phenyl]-N'-[1-(4-fluorobenzyl)-4-piperidyl]urea], for which the “ACAT Inhibition” value in assay [1] is reported as 96%. Further, the “Percent Reduction of Cholesterol” value in assay [2] is on record as 44.6%. Further, the “Antioxidant Activity (percent inhibition of the MDA formation)” value with Human LDL turned out to be 96%.
On to `CC(C)(C)c1cc(CCc2ccccc2NC(=O)NC2CCN(Cc3ccc(C(F)(F)F)cc3C(F)(F)F)CC2)cc(C(C)(C)C)c1O` [Example 85, N-[2-(3,5-di-tert-butyl-4-hydroxyphenethyl)phenyl]-N'-[1[-2,4-bis(trifluoromethyl)benzyl]-4-piperidyl]urea], for which the “ACAT Inhibition” value in assay [1] is on record as 97%. Besides, the “Antioxidant Activity (percent inhibition of the MDA formation)” value in the assay on Human LDL came out at 94%.
Take `CC(C)(C)c1cc(CCc2ccccc2NC(=O)NCC2CCCCC2)cc(C(C)(C)C)c1O` [Example 90, N-[2-(3,5-di-tert-butyl-4-hydroxyphenethyl)phenyl]-N'-(cyclohexylmethyl)urea]: in assay [1], the “ACAT Inhibition” value is 92%. Moreover, the “Antioxidant Activity (percent inhibition of the MDA formation)” value in the assay on Human LDL turned out to be 93%.
For `CC(C)(C)CN1CCC(NC(=O)Nc2ccccc2CCc2cc(C(C)(C)C)c(O)c(C(C)(C)C)c2)CC1` [Example 97, N-[2-(3,5-di-tert-butyl-4-hydroxyphenethyl)phenyl]-N'-[1-(2,2-dimethylpropyl)-4-piperidyl]urea], the “ACAT Inhibition” value in assay [1] was determined as 89%. For the same molecule, the “Antioxidant Activity (percent inhibition of the MDA formation)” value with Human LDL was 96%.
For `CN(C(=O)Nc1ccccc1CCc1cc(C(C)(C)C)c(O)c(C(C)(C)C)c1)C1CCCN(Cc2ccccc2)C1` (stereo not shown) [Example 99, N-[2-(3,5-di-tert-butyl-4-hydroxyphenethyl)phenyl]-N'-(1-benzyl-3-piperidyl)-N'-methylurea], the “ACAT Inhibition” value in assay [1] is given as 100%. Further, the “Antioxidant Activity (percent inhibition of the MDA formation)” value in the assay on Human LDL was found to be 95%.
For `CCCCCCCN(C)C(=O)Nc1ccccc1/C=C/c1cc(C(C)(C)C)c(O)c(C(C)(C)C)c1` [Example 105, N-[2-(3,5-di-tert-butyl-4-hydroxystyryl)phenyl]-N'-methyl-N'-heptylurea], the “Percent Reduction of Cholesterol” value in assay [2] is on record as 45.9%.
As to `CC(C)(C)c1cc(CCc2ccccc2NC(=O)N2CCN(Cc3ccccc3)CC2)cc(C(C)(C)C)c1O` [Example 114, 1-Benzyl-4-[N-[2-(3,5-di-tert-butyl-4-hydroxyphenethyl)phenyl]carbamoyl]piperazine], in assay [1], the “ACAT Inhibition” value is reported as 82%. In addition, the “Antioxidant Activity (percent inhibition of the MDA formation)” value in the assay on Human LDL amounted to 98%.
On to `CC(C)(C)c1cc(CCc2ccccc2NC(=O)N2CCC(Cc3ccccc3)CC2)cc(C(C)(C)C)c1O` [Example 115, 4-Benzyl-1-[N-[2-(3,5-di-tert-butyl-4-hydroxyphenethyl)phenyl]carbamoyl]piperidine], for which the “ACAT Inhibition” value in assay [1] turned out to be 87%. In addition, in the assay with Human LDL, the “Antioxidant Activity (percent inhibition of the MDA formation)” value stood at 98%.
The corresponding values for `CC(C)(C)c1cc(CCc2ccccc2NC(=O)N2CCc3ccccc3C2)cc(C(C)(C)C)c1O` [Example 117, 2-[N-[2-(3,5-di-tert-butyl-4-hydroxyphenethyl)phenyl]carbamoyl]-1,2,3,4-tetrahydroisoquinoline] are 91% and 97%.
On to `CC(C)(C)c1cc(CCc2ccccc2NC(=O)N2CCN(c3ccccc3)CC2)cc(C(C)(C)C)c1O` [Example 124, 1-[N-[2-(3,5-di-tert-butyl-4-hydroxyphenethyl)phenyl]carbamoyl]-4-phenylpiperazine], for which the “ACAT Inhibition” value in assay [1] was found to be 81%. Also, in the assay with Human LDL, the “Antioxidant Activity (percent inhibition of the MDA formation)” value came out at 95%.

The record behind these values is patent US5621010A, “Urea derivatives and their use as ACAT inhibitors” (Nisshin Flour Milling Co., Ltd., priority 1993, dated 1997).
